These results are taken from patent publication EP0350260A2, “New oxamic acid compounds and pharmaceutical composition for use in improvement of damaged cerebral functions of brain” (MEIJI SEIKA KAISHA LTD., priority 1988, dated 1990).

The first data set relates to mice having cerebral anoxia experimentally induced under the load of hypobaric hypoxia. Nature of the data set: Survival time of mice with cerebral anoxia induced under hypobaric hypoxia (Test 1). In kind it is in vivo. The settings on record: 100 mg/kg intraperitoneally, 30 minutes before evacuation to 190 mmHg; 6 ddy mice per group; untreated control group = 100. Here is the method: ddy Mice (6 weeks old, body weight: 25-30 g, each group comprising 6 ddy mice) were administered intraperitoneally with the compounds of the present invention, respectively. Each of the tested compounds of this invention had been beforehand dissolved in redistilled water and the aqueous solution was administered in an amount of 0.1 ml per 10 g body weight. Thirty minutes after the administration, the mice were individually placed in hermetic transparent containers. The containers were rapidly evacuated to 190 mmHg by means of a vacuum pump. Time was measured from the initiation of the evacuation to the death of each mouse due to respiratory failure. That time was recorded as the survival time (seconds) of mice.
The ratios of the survival time of the groups of the treated mice which received the administration of the tested compounds of this invention divided by the survival time of a control group (untreated) which received no administration of the drug were calculated.
In the case of `CCCCN(CC)C(=O)C(=O)O` [N-ethyl-N-butyl-oxamic acid, N-ethyl-N-n-butyloxamic acid], the “Survival time ratio (control group: 100)” value is listed as 116.

For the compound `C=CCN(CC=C)C(=O)C(=O)O` [N,N-di-allyloxamic acid], the “Survival time ratio (control group: 100)” value was 187.

Take `CC(C)N(C(=O)C(=O)O)C(C)C` [N,N-di-isopropyl-oxamic acid, N,N-di-isopropyloxamic acid]: the “Survival time ratio (control group: 100)” value is given as 155.

On to `CCCN(CCC)C(=O)C(=O)O` [N,N-di-n-propyl-oxamic acid, N,N-di-n-propyloxamic acid], for which the “Survival time ratio (control group: 100)” value worked out at 181.

As for `CCCN(CC)C(=O)C(=O)O` [N-ethyl-N-n-propyl-oxamic acid, N-ethyl-N-n-propyloxamic acid], the “Survival time ratio (control group: 100)” value stood at 166.

Another data set has as its system ddy mice.
Experiment: not given
The settings on record: mouse, in vivo. Here is the method: The toxicity of the compounds of the general formula (I) usable in this invention was evaluated by using N,N-di-isopropyloxamic acid as one example.
Consider `CC(C)N(C(=O)C(=O)O)C(C)C` [N,N-di-isopropyl-oxamic acid, N,N-di-isopropyloxamic acid], for which the “toxicity (survival of mice)” value was “all the mice tolerated it and remained alive”.
